Results from patent US10301267B2, “Compounds” (AstraZeneca AB, priority 2006, dated 2019).

Each molecule was assayed against T1, FGFR1 active kinase (Homo sapiens, UniProt P11362) (assay: FGFR Kinase assay - Caliper). Settings: FGFR1 […], 408 uM ATP; mean of n as printed; read-out: FGFR Kinase assay - Caliper, IC50.
Type: biochemical
Method: FGFR Kinase Assay—Caliper
To determine inhibition of FGFR activity, kinase assays were conducted using Caliper technology.
Kinase activity assays were performed in Greiner 384-well low volume plates, with a total reaction volume of 12 ul per well. Final concentration of FGFR1 active kinase in each reaction well was 7.2 nM. The substrate for each assay was a custom peptide with fluorescent tag (13 amino acids in length, […] with the fluorescene tag on the first K).
Compounds were serially diluted in 5% (v/v) DMSO, before being added to assay plates. The Enzyme (at 7.2 nM [final]) and Substrate (at 3.6 uM [final]) were added separately to the compound plates, in reaction buffer [comprising: 50 mM MOPS (Sigma, Catalogue No. M1254)—pH 6.5, 0.004% Triton (Sigma, Catalogue No. X-100), 2.4 mM DTT, 12 mM MgCl2, 408 uM ATP] resulting in a final DMSO concentration in the reaction mix of 0.8%.
Assay plates were incubated at room temperature for 1.5 h, before the reaction was stopped with the addition of buffer [comprising: 100 mM HEPES—pH7.5, 0.033% Brij-35 (Sigma Catalogue No. B4184), 0.22% Caliper Coating Reagent #3 (Caliper Life Sciences Catalogue No. 760050), 88 mM EDTA, 5% DMSO]. Stopped assay plates were then read using the Caliper LabChip® LC3000 (which uses microfludics to measure a shift in mobility between fluorescent labelled peptide and the FGFR1 kinase—phosphorylated form of this peptide).
In the assay, compounds were tested at a range of concentrations.
(§1) Percentage inhibition at 1 uM, as expressed herein, is a calculated value based on the curve fit that was generated experimentally. From the fitted curve plot, the effect of compound at a concentration of 1 uM was calculated as a percentage inhibition. The IC50 is the concentration of compound, which inhibits FGFR1 kinase activity by 50% in the context of this assay.
For FGFR Kinase assay - Caliper, IC50 in this document: 408 µM ATP.

T1 sequence (P11362 22-822): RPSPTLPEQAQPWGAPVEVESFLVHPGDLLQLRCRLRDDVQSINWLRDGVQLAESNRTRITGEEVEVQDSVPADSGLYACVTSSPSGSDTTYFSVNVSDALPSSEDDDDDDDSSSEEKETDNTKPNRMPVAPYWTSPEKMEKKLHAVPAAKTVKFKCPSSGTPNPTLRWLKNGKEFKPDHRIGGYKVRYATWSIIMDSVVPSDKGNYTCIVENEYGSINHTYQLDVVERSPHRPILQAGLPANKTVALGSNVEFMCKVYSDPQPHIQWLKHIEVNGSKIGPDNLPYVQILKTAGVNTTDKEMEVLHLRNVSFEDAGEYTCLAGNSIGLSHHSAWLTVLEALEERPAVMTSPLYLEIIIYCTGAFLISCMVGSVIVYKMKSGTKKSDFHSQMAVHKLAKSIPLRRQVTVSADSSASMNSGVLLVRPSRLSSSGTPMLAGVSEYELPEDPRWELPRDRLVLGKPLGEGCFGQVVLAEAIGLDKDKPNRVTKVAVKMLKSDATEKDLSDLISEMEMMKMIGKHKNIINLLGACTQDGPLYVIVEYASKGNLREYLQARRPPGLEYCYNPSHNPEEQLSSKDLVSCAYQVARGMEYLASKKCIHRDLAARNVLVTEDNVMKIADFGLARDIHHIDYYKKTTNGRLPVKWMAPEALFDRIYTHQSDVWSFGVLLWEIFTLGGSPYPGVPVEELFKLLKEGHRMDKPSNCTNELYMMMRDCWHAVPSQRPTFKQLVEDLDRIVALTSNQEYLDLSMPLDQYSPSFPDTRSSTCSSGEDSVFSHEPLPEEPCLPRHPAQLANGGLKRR

Row | IC50 [nM] | SMILES
1 | 118 | COc1cc(CCc2cc(NC(=O)c3cnc(N4CCN(C)CC4)nc3)[nH]n2)cc(OC)c1 [Example 85, N-[5-[2-(3,5-Dimethoxyphenyl)ethyl]-2H-pyrazol-3-yl]-2-(4-methylpiperazin-1-yl)pyrimidine-5-carboxamide]
2 | 156 | COc1cc(CCc2cc(NC(=O)c3ccc(N4CCN(C5CC5)CC4)cc3)n[nH]2)cc(OC)c1 [Example 88, 4-(4-Cyclopropylpiperazin-1-yl)-N-[5-[2-(3,5-dimethoxyphenyl)ethyl]-1H-pyrazol-3-yl]benzamide]

The molecules below were run against T1, FGFR1 active kinase (assay: FGFR Kinase assay - Caliper Echo Dosing). Settings: FGFR1 7.2 nM, 408 uM ATP, acoustic dosing; geometric mean of n.
Type: biochemical

Row | IC50 [nM] | SMILES
3 | 14.9 | COc1cc(CCc2cc(NC(=O)c3cnc(N4CCN(C)CC4)nc3)[nH]n2)cc(OC)c1 [Example 85, N-[5-[2-(3,5-Dimethoxyphenyl)ethyl]-2H-pyrazol-3-yl]-2-(4-methylpiperazin-1-yl)pyrimidine-5-carboxamide]
4 | 0.77 | COc1cc(CCc2cc(NC(=O)c3ccc(N4CCN(C5CC5)CC4)cc3)n[nH]2)cc(OC)c1 [Example 88, 4-(4-Cyclopropylpiperazin-1-yl)-N-[5-[2-(3,5-dimethoxyphenyl)ethyl]-1H-pyrazol-3-yl]benzamide]
5 | 1.8 | COc1cc(CCc2cc(NC(=O)c3cnc(N4CCCN(C)CC4)cn3)[nH]n2)cc(OC)c1 [Example 163, N-[5-[2-(3,5-dimethoxyphenyl)ethyl]-2H-pyrazol-3-yl]-5-(4-methyl-1,4-diazepan-1-yl)pyrazine-2-carboxamide]
6 | 0.78 | C=CCN1CCCN(c2ccc(C(=O)Nc3cc(CCc4cc(OC)cc(OC)c4)n[nH]3)cc2)CC1 [Example 164, N-[5-[2-(3,5-dimethoxyphenyl)ethyl]-2H-pyrazol-3-yl]-4-(4-prop-2-enyl-1,4-diazepan-1-yl)benzamide]
7 | 0.064 | COc1cc(CCc2cc(NC(=O)c3ccc(N4CCCN(C5CC5)CC4)cc3)[nH]n2)cc(OC)c1 [Example 165, 4-(4-cyclopropyl-1,4-diazepan-1-yl)-N-[5-[2-(3,5-dimethoxyphenyl)ethyl]-2H-pyrazol-3-yl]benzamide]
8 | 0.7 | COc1cc(CCc2cc(NC(=O)c3ccc(N4CCCN(C(C)C)CC4)cc3)[nH]n2)cc(OC)c1 [Example 166, N-[5-[2-(3,5-dimethoxyphenyl)ethyl]-2H-pyrazol-3-yl]-4-(4-propan-2-yl-1,4-diazepan-1-yl)benzamide]
9 | 0.63 | COc1cc(CCc2cc(NC(=O)c3cnc(N4CCCN(C(C)C)CC4)cn3)[nH]n2)cc(OC)c1 [Example 167, N-[5-[2-(3,5-dimethoxyphenyl)ethyl]-2H-pyrazol-3-yl]-5-(4-propan-2-yl-1,4-diazepan-1-yl)pyrazine-2-carboxamide]
10 | 1.5 | COc1cc(CCc2cc(NC(=O)c3ccc(N4CCCN(C(C)C)CC4)s3)[nH]n2)cc(OC)c1 [Example 168, N-[5-[2-(3,5-dimethoxyphenyl)ethyl]-2H-pyrazol-3-yl]-5-(4-propan-2-yl-1,4-diazepan-1-yl)thiophene-2-carboxamide]
11 | 2.7 | CCN1CCCN(c2cnc(C(=O)Nc3cc(CCc4cc(OC)cc(OC)c4)n[nH]3)cn2)CC1 [Example 169, N-[5-[2-(3,5-dimethoxyphenyl)ethyl]-2H-pyrazol-3-yl]-5-(4-ethyl-1,4-diazepan-1-yl)pyrazine-2-carboxamide]
12 | 0.71 | CCN1CCCN(c2ccc(C(=O)Nc3cc(CCc4cc(OC)cc(OC)c4)n[nH]3)cc2)CC1 [Example 170, N-[5-[2-(3,5-dimethoxyphenyl)ethyl]-2H-pyrazol-3-yl]-4-(4-ethyl-1,4-diazepan-1-yl)benzamide]
13 | 9.2 | CCN1CCCN(c2ncc(C(=O)Nc3cc(CCc4cc(OC)cc(OC)c4)n[nH]3)cn2)CC1 [Example 171, N-[5-[2-(3,5-dimethoxyphenyl)ethyl]-2H-pyrazol-3-yl]-2-(4-ethyl-1,4-diazepan-1-yl)pyrimidine-5-carboxamide]
14 | 3.4 | C=CCN1CCCN(c2cnc(C(=O)Nc3cc(CCc4cc(OC)cc(OC)c4)n[nH]3)cn2)CC1 [Example 172, N-[5-[2-(3,5-dimethoxyphenyl)ethyl]-2H-pyrazol-3-yl]-5-(4-prop-2-enyl-1,4-diazepan-1-yl)pyrazine-2-carboxamide]
15 | 18 | COc1cc(CCc2cc(NC(=O)c3cnc(N4CCCN(C(C)C)CC4)nc3)[nH]n2)cc(OC)c1 [Example 173, N-[5-[2-(3,5-dimethoxyphenyl)ethyl]-2H-pyrazol-3-yl]-2-(4-propan-2-yl-1,4-diazepan-1-yl)pyrimidine-5-carboxamide]
16 | 3.7 | COc1cc(CCc2cc(NC(=O)c3cnc(N4CCCN(C5CC5)CC4)cn3)[nH]n2)cc(OC)c1 [Example 174, 5-(4-cyclopropyl-1,4-diazepan-1-yl)-N-[5-[2-(3,5-dimethoxyphenyl)ethyl]-2H-pyrazol-3-yl]pyrazine-2-carboxamide]
17 | 7 | C=CCN1CCCN(c2ncc(C(=O)Nc3cc(CCc4cc(OC)cc(OC)c4)n[nH]3)cn2)CC1 [Example 175, N-[5-[2-(3,5-dimethoxyphenyl)ethyl]-2H-pyrazol-3-yl]-2-(4-prop-2-enyl-1,4-diazepan-1-yl)pyrimidine-5-carboxamide]
18 | 5.8 | COc1cc(CCc2cc(NC(=O)c3cnc(N4CCCN(C)CC4)nc3)[nH]n2)cc(OC)c1 [Example 176, N-[5-[2-(3,5-dimethoxyphenyl)ethyl]-2H-pyrazol-3-yl]-2-(4-methyl-1,4-diazepan-1-yl)pyrimidine-5-carboxamide]
19 | 7.3 | COc1cc(CCc2cc(NC(=O)c3cnc(N4CCCN(C5CC5)CC4)nc3)[nH]n2)cc(OC)c1 [Example 177, 2-(4-cyclopropyl-1,4-diazepan-1-yl)-N-[5-[2-(3,5-dimethoxyphenyl)ethyl]-2H-pyrazol-3-yl]pyrimidine-5-carboxamide]
20 | 1.1 | CNC(=O)c1cccc(CCc2cc(NC(=O)c3ccc(N4CCN(C)CC4)cc3)[nH]n2)c1 [Example 178, N-[5-[2-[3-(methylcarbamoyl)phenyl]ethyl]-2H-pyrazol-3-yl]-4-(4-methylpiperazin-1-yl)benzamide]
21 | 0.68 | CCN1CCN(c2ccc(C(=O)Nc3cc(OCc4cc(OC)cc(OC)c4)n[nH]3)cc2)CC1 [Example 179, N-[5-[(3,5-dimethoxyphenyl)methoxy]-2H-pyrazol-3-yl]-4-(4-ethylpiperazin-1-yl)benzamide]
22 | 1.7 | CCN1CCN(c2ccc(C(=O)Nc3cc(CCc4cc(OC)cc(OC)c4)n[nH]3)cc2)CC1 [Example 180, N-[5-[2-(3,5-dimethoxyphenyl)ethyl]-2H-pyrazol-3-yl]-4-(4-ethylpiperazin-1-yl)benzamide]

Each molecule was assayed against T2, His6-tagged FGFR kinase domain (Homo sapiens, UniProt P11362, C488A/C584S) (assay: FGFR Kinase assay - Elisa). Settings: FGFR inhibition test, Elisa; read-out: Activity class (FGFR Kinase assay - Elisa).
T2 construct: FGFR kinase domain (amino acids 458-765, C488A, C584S) N-terminally fused to a His6-tag and TEV cleavage site; His6-tag plus linker and TEV cleavage site (printed as X1); made in house
T2 sequence (P11362 458-765 C488A/C584S): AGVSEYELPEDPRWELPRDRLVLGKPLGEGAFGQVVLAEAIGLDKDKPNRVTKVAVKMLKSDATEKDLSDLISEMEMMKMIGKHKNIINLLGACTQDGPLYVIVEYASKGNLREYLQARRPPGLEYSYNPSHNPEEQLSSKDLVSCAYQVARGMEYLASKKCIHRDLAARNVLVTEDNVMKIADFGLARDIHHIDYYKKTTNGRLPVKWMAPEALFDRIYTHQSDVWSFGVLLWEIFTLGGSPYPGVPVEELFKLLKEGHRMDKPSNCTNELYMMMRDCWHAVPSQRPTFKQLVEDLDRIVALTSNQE
Type: biochemical
Method: To determine inhibition of FGFR activity, kinase assays were conducted using ELISA (Enzyme-Linked Immunosorbent Assay) technology.
Kinase activity assays were performed in 384-well polypropylene plates (Matrix, Catalogue No. 4311. Matrix are part of Thermo Fisher Scientific, 22 Friars Drive, Hudson, N.H. 03051, USA) with a total volume of 40 μl in each well. Each well was coated with 2 μg of polyEAY substrate (Sigma, Catalogue No. P3899) at 4° C. overnight. The plates were then washed once with 100 μl PBS and once with 100 μl 50 mM HEPES (pH 7.4) prior to the addition of the kinase assay reagents. Reactions contained His6-tagged FGFR kinase domain (FGFR kinase domain (amino acids 458-765, C488A, C584S) N-terminally fused to a His6-tag and TEV cleavage site encoded by the following sequence; [[…]]. The final alanine denotes the start of the FGFR protein sequence. The resultant protein was expressed and purified based on Mohammadi et al, Cell Vol 86, 577-587 (1996). Each kinase reaction contained 0.1 ng His6-tagged FGFR kinase domain, 50 mM HEPES (pH 7.4), 0.1 mM Na3VO4, 0.1 mM DTT, 0.05% (v/v) Triton X100, 20 mM MgCl2, 160 μM ATP. Various concentrations of test compounds were each added in 5% (v/v) DMSO to yield a final assay DMSO concentration of 1.25% (v/v). The kinase reactions were incubated at room temperature for 45 minutes and stopped by washing the plate three times with 100 μl PBS plus 0.05% Tween. 40 μl of a one in 10000 dilution of 4G10-HRP antibody (Upstate Biotechnology, UBI 16-105. Upstate are part of Millipore Corporation, 290 Concord Road, Billerca Mass. 01821 USA) made up in 0.5% (w/v) BSA/PBS was then added to each well and the plates incubated at room temperature for one hour. Following this, the plates were then washed repeatedly with 100 μl PBS plus 0.05% Tween to remove all traces of the antibody solution. 40 μl of 50 μg/ml 3,3′,5,5′-Tetramethylbenzidine (Sigma, Catalogue No. T2885), 0.05M phosphate-citrate buffer, containing 0.03% sodium perborate was added to each well and the plates incubated at room temperature for twelve minutes. The colour reaction was stopped by the addition of 20 μl 2M H2SO4 and the plates read at 450 nm on a Spectrafluor Plus (Tecan Trading AG, Switzerland). In the assay, compounds were tested at a range of concentrations.
as §1, with “IC50 value” for “IC50”, “test compound that” for “compound, which”, “50% of FGFR” for “FGFR1”, “activity.” for “activity by 50% in the context of this assay.”

Row | IC50 [nM] | SMILES
23 | < 300 | COc1cc(COc2cc(NC(=O)c3ccc(N4CCN(C)CC4)cc3)[nH]n2)cc(OC)c1 [Example 12, N-[5-[(3,5-dimethoxyphenyl)methoxy]-2H-pyrazol-3-yl]-4-(4-methylpiperazin-1-yl)benzamide]

Same assay, conditions: polyEAY substrate, 160 μM ATP; read-out: FGFR Kinase assay - Elisa, IC50

Row | IC50 [nM] | SMILES
24 | 60 | COc1cc(COc2cc(NC(=O)c3ccc(N4CCN(C)CC4)cc3)[nH]n2)cc(OC)c1 [Example 12, N-[5-[(3,5-dimethoxyphenyl)methoxy]-2H-pyrazol-3-yl]-4-(4-methylpiperazin-1-yl)benzamide]
